Source: patent US20250312323A1 (Cavion, Inc., priority 2018, published 2025)

Legend:
[1] = test system: patients with essential tremor; assay: T-CALM: Kinesia ONE accelerometry score; assay type: in vivo, human
Text: Kinesia One platform is deployed in T-CALM as a digital marker of tremor severity. Kinesia One is FDA cleared for monitoring Parkinson's motor symptom severity with only limited data on assessment of tremor in ET patients. The algorithmically derived score was developed primarily in Parkinson's disease algorithms and has limited validation in ET (see, e.g., Hoffman et al., 2011 Conf Proc IEEE Eng Med Biol Soc. 2011:4378-81). The Kinesia One device is placed on the index finger of each ET patient and worn in the clinic after completion of the TETRAS Performance subscale. Four tasks are performed by the patient on the left and right sides to assess resting, postural, kinetic and lateral wing beating tremor. The Kinesia One score change in score from baseline to day 28 is evaluated as a secondary efficacy endpoint. The Kinesia One data is also utilized for exploratory analysis of efficacy on the change from baseline to day 15 for accelerometry score and for change from baseline on amplitude measures for days 15 and 28. Consistent finger sensor placement and consistent task execution are critical factors for valid Kinesia One scores.
Both sets of scores were statistically analyzed.

[2] = Pharmacokinetics of CX-8998 immediate release capsules in healthy volunteers (Studies PN001, PN002); assay type: in vivo, human; conditions: 2-18 mg dose range

dose proportionality of plasma profiles [2]: dose proportional
Structure (SMILES): CC(C)c1ccc(CC(=O)N[C@H](C)c2ccc(OCC(F)(F)F)cn2)cc1 [CX-8998]
Kinesia ONE Total Score change from baseline, LS mean difference from placebo (95% CI) ([1]; Day 15, ANCOVA): −0.4 (−1.7, 0.9) | Kinesia ONE score, difference vs placebo ([1]; Day 15 and Day 28): did not show a significant difference
